Reference: PubChem BioAssay AID1963852 (Molecular Pharmacology Branch, DTP, NCI, 2024)
Several values for one entry are separate records, joined by “and”; a condition that tells them apart may be missing. Equal values may be shown once.

System: 282377-053-R-J1-PDC complex spheroid viability
Test: Anticancer human tumor 282377-053-R-J1-PDC patient-derived colon adenocarcinoma cell line growth inhibition [POLQ]
Details: for viability, T/C: stronger effect = lower value
Description: Multicellular complex tumor spheroid response to Polymerase (POL) inhibitors (novobiocin, ART-558, RP6685) in combination with a variety of drugs and investigational agents in selected tumor cell lines
The POL inhibitors (novobiocin, ART-558, and RP6685) were evaluated both individually and in combination with standard of care and investigational anticancer small molecules within a complex spheroid model of solid tumors. . Complex spheroids include a stromal component modeled by human endothelial cells (HUVEC) and fibroblasts modeled by human mesenchymal stem cells (MSCs). The concentration ranges selected for each drug and investigational agent were based upon clinically achievable concentrations if the clinical Cmax of the agent was known.
Compounds. The drugs and investigational agents: novobiocin (NSC847541), ART-558 (NSC835418), RP-6685 (NSC848927), peposertib (NSC802822), ceralasertib (NSC780249), elimusertib (NSC800525), camonsertib (NSC841442), AZD-1390 (NSC803789), olaparib (NSC753686), talazoparib (NSC767125), rucaparib (NSC756644), sotorasib (NSC818433), MRTX-1133 (NSC836407), SN-38 (NSC673596), topotecan (NSC609699), epotoside (NSC141540), doxorubicin (NSC123127), gemcitabine (NSC613327), 5-fluorouracil (NSC19893), paclitaxel (NSC125973), vemurafenib (NSC761431), MSA-2 (NSC828583), SN-011 (NSC837082), adavosertib (NSC754352), prexasertib (NSC758257), carboplatin (NSC241240) and oxaliplatin (NSC266046), were obtained from the National Cancer Institute (NCI) Developmental Therapeutics Program Chemical Repository (21). The FDA-approved anticancer drug set is available from the Developmental Therapeutics Program at https://dtp.cancer.gov/organization/dscb/obtaining/. […] The stock solutions were prepared in dimethyl sulfoxide (DMSO, Sigma-Aldrich, St. Louis, MO, cat. D2650), except for the platinum compounds which were prepared in saline (Quality Biological, Gaithersburg, MD, cat. 114-055-101), at 800-fold the tested concentration and stored at -70 degrees C prior to their use. All drugs and investigational agents were tested over a range starting from a high concentration at or near the clinical Cmax and decreasing in half-log increments. If the clinical Cmax for an agent had not been determined, the highest concentration tested was 10 microM, except for SN-38, which was tested at a high concentration of 1 microM.
Cell Culture. All cells were maintained in an incubator at 37 degrees C and 5% CO2 with 95% humidity. The PDC lines were cultured according to standard operating procedures established by the NCI PDMR (https://pdmr.cancer.gov). Table 3 of the manuscript, lists the cell lines along with the number of the three cell types plated to form the mct-spheroids and media for tumor cell growth. After thawing, all PDC lines, except 997537-175-T-J1-PDC and 415267-285-R-J2-PDC, were cultured in Matrigel-coated flasks prepared with a working solution of 1X Ham's F-12 nutrient mix, without supplementation (Thermo Fisher Scientific, cat. 11765054), 100 U/mL penicillin-streptomycin (Thermo Fisher Scientific, cat. 15140122), and 2.5% Matrigel (Corning Inc., Corning, NY, cat. 354248) for the first three passages. The two PDC lines 997537-175-T-J1-PDC and 415267-285-R-J2-PDC were cultured on uncoated flasks. The 857933-349-R-J2-PDC line was cultured in 6C/Colon 1B media containing advanced DMEM/F-12 (Thermo Fisher Scientific, cat. 12634028), 10 mM HEPES (Thermo Fisher Scientific, cat. 15630080), 1X GlutaMAX supplement (Thermo Fisher Scientific, cat. 35050061), 0.1 mg/mL primocin (InvivoGen, San Diego, CA, cat. ant-pm-2), 10% defined fetal bovine serum, heat inactivated (HyClone Laboratories Inc., Logan, UT, cat. SH30070.03HI), 50% L-WRN conditioned media (ATCC, cat. CRL-3276), 1.25 mM N-Acetyl-L-cysteine (Sigma-Aldrich, cat. A9165), 10 mM nicotinamide (Sigma-Aldrich, cat. N0636), 1X B-27 supplement (Thermo Fisher Scientific, cat. 17504044), 1X N-2 supplement (Thermo Fisher Scientific, cat. […]

[1] = compound alone, run of 10/31/2023
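Also: spheroids exposed to compounds for seven days.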
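For viability, T/C in this document: 100% = DMSO vehicle control viability.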

CC1COCCN1c1cc(C2(S(C)(=N)=O)CC2)nc(-c2ccnc3[nH]ccc23)n1 (configuration not stated) + Cc1cccc(N(C)C(=O)C2C(O)CCN2c2nc(C)cc(C(F)(F)F)c2C#N)c1
IC50 (curve of first compound, second compound 0.0316 µM): 7.38 µM
IC50 (curve of first compound, second compound 0.1 µM): > 10 µM
IC50 (curve of first compound, second compound 0.316 µM): > 10 µM
IC50 (curve of first compound, second compound 1 µM): > 10 µM
IC50 (curve of first compound, second compound 3.16 µM): > 10 µM
IC50 (curve of first compound, second compound 10 µM): 5.13 µM
viability, T/C (second compound 0.0316 µM, first compound 0.0316 µM): 113%
viability, T/C (second compound 0.0316 µM, first compound 0.1 µM): 81.7%
viability, T/C (second compound 0.0316 µM, first compound 0.316 µM): 108%
viability, T/C (second compound 0.0316 µM, first compound 1 µM): 77.6%
viability, T/C (second compound 0.0316 µM, first compound 3.16 µM): 66%
viability, T/C (second compound 0.0316 µM, first compound 10 µM): 44%
viability, T/C (second compound 0.1 µM, first compound 0.0316 µM): 98.3%
viability, T/C (second compound 0.1 µM, first compound 0.1 µM): 103%
viability, T/C (second compound 0.1 µM, first compound 0.316 µM): 77.5%
viability, T/C (second compound 0.1 µM, first compound 1 µM): 84.4%
viability, T/C (second compound 0.1 µM, first compound 3.16 µM): 71.8%
viability, T/C (second compound 0.1 µM, first compound 10 µM): 54.3%
viability, T/C (second compound 0.316 µM, first compound 0.0316 µM): 91.3%
viability, T/C (second compound 0.316 µM, first compound 0.1 µM): 101%
viability, T/C (second compound 0.316 µM, first compound 0.316 µM): 80.8%
viability, T/C (second compound 0.316 µM, first compound 1 µM): 89.5%
viability, T/C (second compound 0.316 µM, first compound 3.16 µM): 98.2%
viability, T/C (second compound 0.316 µM, first compound 10 µM): 50.2%
viability, T/C (second compound 1 µM, first compound 0.0316 µM): 107%
viability, T/C (second compound 1 µM, first compound 0.1 µM): 111%
viability, T/C (second compound 1 µM, first compound 0.316 µM): 83.6%
viability, T/C (second compound 1 µM, first compound 1 µM): 86.1%
viability, T/C (second compound 1 µM, first compound 3.16 µM): 69.5%
viability, T/C (second compound 1 µM, first compound 10 µM): 52.5%
viability, T/C (second compound 3.16 µM, first compound 0.0316 µM): 93%
viability, T/C (second compound 3.16 µM, first compound 0.1 µM): 84.4%
viability, T/C (second compound 3.16 µM, first compound 0.316 µM): 123%
viability, T/C (second compound 3.16 µM, first compound 1 µM): 114%
viability, T/C (second compound 3.16 µM, first compound 3.16 µM): 64.9%
viability, T/C (second compound 3.16 µM, first compound 10 µM): 49.7%
viability, T/C (second compound 10 µM, first compound 0.0316 µM): 90.6%
viability, T/C (second compound 10 µM, first compound 0.1 µM): 73.6%
viability, T/C (second compound 10 µM, first compound 0.316 µM): 89.1%
viability, T/C (second compound 10 µM, first compound 1 µM): 80.2%
viability, T/C (second compound 10 µM, first compound 3.16 µM): 55.4%
viability, T/C (second compound 10 µM, first compound 10 µM): 42.7%

CCCS(=O)(=O)Nc1ccc(F)c(C(=O)c2c[nH]c3ncc(-c4ccc(Cl)cc4)cc23)c1F
viability, T/C (compound 0.0316 µM): 93.1% and 82.2% and 78.1%
viability, T/C (compound 0.1 µM): 85.3% and 76.1% and 69.5%
viability, T/C (compound 0.316 µM): 85.1% and 71% and 76.2%
viability, T/C (compound 1 µM): 72% and 64.2% and 46.1%
viability, T/C (compound 3.16 µM): 68.8% and 63.2% and 64.1%
viability, T/C (compound 10 µM): 69.5% and 72.5% and 26.7%
IC50 (curve of compound): > 10 µM and 3.36 µM

CC[C@@]1(O)C(=O)OCc2c1cc1n(c2=O)Cc2cc3c(CN(C)C)c(O)ccc3nc2-1
viability, T/C (compound 0.000316 µM): 98.9% and 101% and 105%
viability, T/C (compound 0.001 µM): 93.9% and 102% and 98.8%
viability, T/C (compound 0.00316 µM): 77% and 92.2% and 116%
viability, T/C (compound 0.01 µM): 119% and 104% and 94.3%
viability, T/C (compound 0.0316 µM): 98.5% and 97.7% and 86.9%
viability, T/C (compound 0.1 µM): 81.5% and 110% and 76.7%
IC50 (curve of compound): > 0.1 µM

CCc1cc2c(N3CCc4c(cc(Cn5ccnc5)cc4-c4cn(C)nc4C(F)(F)F)C3=O)cc(C)nc2c(OC)n1
viability, T/C (compound 0.0316 µM): 103% and 99% and 81.1%
viability, T/C (compound 0.1 µM): 120% and 97.4% and 84.6%
viability, T/C (compound 0.316 µM): 124% and 98% and 87.1%
viability, T/C (compound 1 µM): 144% and 89.3% and 98.1%
viability, T/C (compound 3.16 µM): 112% and 113% and 109%
viability, T/C (compound 10 µM): 72.1% and 119% and 109%
IC50 (curve of compound): > 10 µM

Cc1cccc(N(C)C(=O)C2C(O)CCN2c2nc(C)cc(C(F)(F)F)c2C#N)c1 (configuration not stated)
viability, T/C (compound 0.1 µM): 105% [middle of 13 runs]
IC50 [1]: > 10 µM
IC50 (compound alone, run of 11/06/2023): > 10 µM

COC1C(OC(N)=O)C(O)C(Oc2ccc3c(O)c(NC(=O)c4ccc(O)c(CC=C(C)C)c4)c(=O)oc3c2C)OC1(C)C (configuration not stated)
viability, T/C (compound 0.0316 µM): 94.6% [middle of 13 runs]
viability, T/C (compound 0.316 µM): 105% [middle of 13 runs]
viability, T/C (compound 1 µM): 101% [middle of 13 runs]
viability, T/C (compound 3.16 µM): 101% [middle of 13 runs]
viability, T/C (compound 10 µM): 101% [middle of 13 runs]
IC50 [1]: > 10 µM
